Measured values published in patent US6699969B1, “Assays for the detection of microtubule depolymerization inhibitors” (The Regents of the University of California, priority 1998, dated 2004).

Test system: MSU1.1 human fibroblasts
Test: Centrosome targeting of GFP fusion after transient transfection
Type: cell-based
Conditions: 2-4 hr after transfection
Experimental: To allow transient expression of a human p80 WD40-GFP fusion protein in HeLa cells, a DNA fragment containing amino acids 1-263 of human p80 katanin was generated by PCR amplification, placing a BamHl site and a Kozak consensus at the predicted translation start and an EcoRI site after the codon for a.a. 263. This BamH1-EcoR1 fragment was ligated into the GFP fusion vector pEGFP-N1 (Clontech).
Both MSU1.1 and Hela cells were grown on 18 mm glass coverslips in Optimem medium (Life Technologies) supplemented with 10% fetal bovine serum, penicillin and streptomycin. Plasmids were transfected using Superfect Reagent (Qiagen) for 2 hr after which coverslips were washed with PBS and placed in fresh culture medium at 37° C. with 5% CO2 for 1-24 hr.
For imaging of GFP-fluorescence and immunofluorescence with the human p80 katanin antibody or with the γ-tubulin antibody, monoclonal GTU88 (Sigma Chemical), cells on coverslips were fixed either in −20° C. methanol or in 0.5×PBS, 3.7% formaldehyde, 75% methanol at 22° C. for 10 min followed by rehydration in TBST. Antibody labelling was carried out in TBST containing 4% BSA. Images were captured with a Nikon Microphot SA microscope, 100× Plan Fluor 1.3 objective, Photometrics Quantix camera and IP Lab Spectrum software (Scanalytics).

Substance: p80 WD40-GFP: six WD40 repeats of human p80 katanin (a.a. 1-263) appended to N-terminus of green fluorescent protein
- localization of green fluorescence: co-localized with γ-tubulin staining
